Experiments:
Format in all cases: cell-based
[1] = molecular target: T1, human GPR40 (Homo sapiens, UniProt O14842); experiment: GPR40 calcium flux assay, human GPR40; details: HEK293 cells stably expressing GPR40; table does not say human or rat
T1 construct: expressed in transfected cells
Procedure, shortened: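 Cells preincubated 1 h at 37° C. in HBSS, 20 mM HEPES, 0.1% BSA, then Fluo 8 calcium dye 30 min at 37° C. and 15 min at room temperature.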

[2] = molecular target: T2, long form of human GPR120 (Homo sapiens, UniProt Q5NUL3); experiment: Human GPR120 DiscoveRx PathHunter Beta-Arrestin assay, Procedure β-arrestin A
T2 construct: host or cells: PathHunter CHO-K1 GPR120 β-Arrestin Cell Line
Procedure, shortened: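 PathHunter CHO-K1 cells expressing long-form human GPR120 (3000/well) were seeded overnight. They were then preincubated 60 min in HBSS with 20 mM HEPES and 0.1% BSA, pH 7.4, and exposed to compound for 90 min at 37 °C. β-Arrestin recruitment was read as β-gal complementation luminescence. EC50 came from % activity versus positive control, Hill slope fixed at 1.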

[3] = molecular target: T3, Human GPR120 short form (Homo sapiens, UniProt Q5NUL3); experiment: Human GPR120 calcium flux assay, Procedure Calcium B (4200 cells/well)
T3 construct: expressed in transfected cells
T3 sequence (Q5NUL3 1-361): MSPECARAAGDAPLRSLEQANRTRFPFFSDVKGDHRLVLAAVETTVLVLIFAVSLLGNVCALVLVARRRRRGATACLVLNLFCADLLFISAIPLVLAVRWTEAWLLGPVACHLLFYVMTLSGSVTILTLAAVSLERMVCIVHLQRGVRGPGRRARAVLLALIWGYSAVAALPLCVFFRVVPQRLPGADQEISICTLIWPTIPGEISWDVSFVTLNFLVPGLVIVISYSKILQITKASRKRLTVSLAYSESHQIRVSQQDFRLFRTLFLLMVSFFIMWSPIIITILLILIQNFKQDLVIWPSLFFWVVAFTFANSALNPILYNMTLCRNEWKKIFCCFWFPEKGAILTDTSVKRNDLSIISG
Procedure, shortened: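 HEK293 cells stably expressing human GPR120 (NM_001195755.1), 4200 cells/well, starved 1 h and loaded with Fluo-4 NW plus probenecid. Ligand-evoked calcium flux read on FLIPR for 300 s after a 10 s baseline. RFU = Fmax−Fmin; EC50 from four-parameter concentration-response fit.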

T2 sequence (Q5NUL3 1-377 isoform Q5NUL3-1): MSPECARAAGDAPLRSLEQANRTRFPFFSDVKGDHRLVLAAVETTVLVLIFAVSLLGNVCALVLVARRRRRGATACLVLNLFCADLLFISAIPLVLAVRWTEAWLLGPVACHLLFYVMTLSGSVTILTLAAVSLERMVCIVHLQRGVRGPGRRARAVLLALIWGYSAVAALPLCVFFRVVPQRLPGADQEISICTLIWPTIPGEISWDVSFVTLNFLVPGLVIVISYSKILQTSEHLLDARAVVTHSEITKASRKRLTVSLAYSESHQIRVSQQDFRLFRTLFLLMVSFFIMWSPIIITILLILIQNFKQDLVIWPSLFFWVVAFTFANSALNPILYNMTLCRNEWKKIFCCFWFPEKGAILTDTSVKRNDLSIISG
T2 sequence (P32121 whole entry partner): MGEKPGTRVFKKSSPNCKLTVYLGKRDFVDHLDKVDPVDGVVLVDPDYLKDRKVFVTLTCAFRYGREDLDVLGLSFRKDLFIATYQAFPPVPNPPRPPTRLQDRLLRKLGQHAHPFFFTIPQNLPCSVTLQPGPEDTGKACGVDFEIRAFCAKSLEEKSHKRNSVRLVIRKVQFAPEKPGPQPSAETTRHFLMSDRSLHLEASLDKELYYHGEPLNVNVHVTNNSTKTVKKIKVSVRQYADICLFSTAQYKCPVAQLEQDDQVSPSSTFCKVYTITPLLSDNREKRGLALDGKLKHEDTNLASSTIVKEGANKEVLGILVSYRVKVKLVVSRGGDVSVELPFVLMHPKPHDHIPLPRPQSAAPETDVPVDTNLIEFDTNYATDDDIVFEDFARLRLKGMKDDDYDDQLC
T1 sequence (O14842 whole entry): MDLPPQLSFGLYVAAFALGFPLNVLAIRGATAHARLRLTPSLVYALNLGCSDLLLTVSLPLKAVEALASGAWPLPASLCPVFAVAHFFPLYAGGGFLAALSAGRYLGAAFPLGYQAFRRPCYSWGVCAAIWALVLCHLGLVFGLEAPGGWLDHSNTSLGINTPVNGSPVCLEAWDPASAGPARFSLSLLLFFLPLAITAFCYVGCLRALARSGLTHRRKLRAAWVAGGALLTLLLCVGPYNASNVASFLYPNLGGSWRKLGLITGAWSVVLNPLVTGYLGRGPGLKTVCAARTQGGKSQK

EC50 [1]	EC50 [2]	EC50 [3]	Structure (SMILES)
> 5000 nM	132 nM	57 nM	COc1ncc(C2=C(COc3ccc(CCC(=O)O)cc3C)CCC2)cc1F [Compound 222, 3-[4-[[2-(5-fluoro-6-methoxy-3-pyridyl)cyclopenten-1-yl]methoxy]-3-methyl-phenyl]Propanoic Acid]
> 5000 nM	227 nM	156 nM	COc1ncc(C2=C(COc3ccc(CCC(=O)O)c(C)c3C)CCC2)cc1F [Compound 223, 3-[4-[[2-(5-fluoro-6-methoxy-3-pyridyl)cyclopenten-1-yl]methoxy]-2,3-dimethyl-phenyl]Propanoic Acid]
> 5000 nM	231 nM	285 nM	COc1ncc(C2=C(COc3c(F)cc(CCC(=O)O)cc3F)CCC2)cc1F [Compound 224, 3-[3,5-difluoro-4-[[2-(5-fluoro-6-methoxy-3-pyridyl)cyclopenten-1-yl]methoxy]phenyl]Propanoic Acid]
> 5000 nM	588 nM	530 nM	CCOc1ccc(C2=C(COc3ccc(CCC(=O)O)cc3C)CCC2)cn1 [Compound 225, 3-[4-[[2-(6-ethoxy-3-pyridyl)cyclopenten-1-yl]methoxy]-3-methyl-phenyl]Propanoic Acid]
> 5000 nM	1290 nM	724 nM	CCOc1ccc(C2=C(COc3c(F)cc(CCC(=O)O)cc3F)CCC2)cn1 [Compound 226, 3-[4-[[2-(6-ethoxy-3-pyridyl)cyclopenten-1-yl]methoxy]-3,5-difluoro-phenyl]Propanoic Acid]
4930 nM	238 nM	124 nM	O=C(O)CCc1ccc(OCC2=C(c3ccc(F)cc3)CC(F)(F)C2)cc1 [Compound 228, 3-[4-[[4,4-difluoro-2-(4-fluorophenyl)cyclopenten-1-yl]methoxy]phenyl]Propanoic Acid]
825 nM	312 nM	173 nM	O=C(O)CCc1ccc(OCC2=C(c3ccc(F)cc3)CCC(F)(F)C2)cc1C(F)(F)F [Compound 489, 3-[4-[[5,5-difluoro-2-(4-fluorophenyl)cyclohexen-1-yl]methoxy]-2-(trifluoromethyl)phenyl]Propanoic Acid]
> 5000 nM	122 nM	75 nM	Cc1c(CCC(=O)O)ccc(OCC2=C(c3ccc(F)cc3)CCC(F)(F)C2)c1C [Compound 497, 3-[4-[[5,5-difluoro-2-(4-fluorophenyl)cyclohexen-1-yl]methoxy]-2,3-dimethyl-phenyl]Propanoic Acid]
> 5000 nM	219 nM	96 nM	Cc1cc(CCC(=O)O)ccc1OCC1=C(c2ccc(F)cc2)CCC(F)(F)C1 [Compound 498, 3-[4-[[5,5-difluoro-2-(4-fluorophenyl)cyclohexen-1-yl]methoxy]-3-methyl-phenyl]Propanoic Acid]
> 5000 nM	132 nM	215 nM	O=C(O)CCc1ccc(OCC2=C(c3ccc(F)cc3)CCC(F)(F)C2)cc1 [Compound 499, 3-[4-[[5,5-difluoro-2-(4-fluorophenyl)cyclohexen-1-yl]methoxy]phenyl]Propanoic Acid]
> 5000 nM	155 nM	364 nM	Cc1c(CCC(=O)O)ccc(OCC2=C(c3ccc(Cl)cc3)CCC(C(C)C)C2)c1C (stereo not drawn) [Compound 501, 3-[4-[[2-(4-chlorophenyl)-5-isopropyl-cyclohexen-1-yl]methoxy]-2,3-dimethyl-phenyl]Propanoic Acid]
> 5000 nM	192 nM	147 nM	CCC1CCC(c2ccc(Cl)cc2)=C(COc2ccc(CCC(=O)O)c(C)c2C)C1 (stereo not drawn) [Compound 502, 3-[4-[[2-(4-chlorophenyl)-5-ethyl-cyclohexen-1-yl]methoxy]-2,3-dimethyl-phenyl]Propanoic Acid]
3750 nM	639 nM	255 nM	Cc1cc(OCC2=C(c3ccc(F)cc3)CCC(F)(F)C2)ccc1CCC(=O)O [Compound 518, 3-[4-[[5,5-difluoro-2-(4-fluorophenyl)cyclohexen-1-yl]methoxy]-2-methyl-phenyl]Propanoic Acid]
3310 nM	772 nM	222 nM	Cc1cc(OCC2=C(c3ccc(Cl)cc3)CCC(F)(F)C2)ccc1CCC(=O)O [Compound 519, 3-[4-[[2-(4-chlorophenyl)-5,5-difluoro-cyclohexen-1-yl]methoxy]-2-methyl-phenyl]Propanoic Acid]
> 5000 nM	853 nM	714 nM	CCC1CCC(COc2ccc(CCC(=O)O)c(C)c2C)=C(c2ccc(Cl)cc2)C1 (stereo not drawn) [Compound 522, 3-[4-[[2-(4-chlorophenyl)-4-ethyl-cyclohexen-1-yl]methoxy]-2,3-dimethyl-phenyl]Propanoic Acid]
4030 nM	121 nM	165 nM	Cc1ccc(C2=C(COc3c(F)cc(CCC(=O)O)cc3F)CC(F)(F)CC2)cc1F [Compound 525, 3-[4-[[5,5-difluoro-2-(3-fluoro-4-methyl-phenyl)cyclohexen-1-yl]methoxy]-3,5-difluoro-phenyl]Propanoic Acid]
> 5000 nM	136 nM	156 nM	Cc1ccc(C2=C(COc3ccc(CCC(=O)O)c(C)c3C)CC(F)(F)CC2)cc1F [Compound 529, 3-[4-[[5,5-difluoro-2-(3-fluoro-4-methyl-phenyl)cyclohexen-1-yl]methoxy]-2,3-dimethyl-phenyl]Propanoic Acid]
> 5000 nM	73 nM	68 nM	Cc1ccc(C2=C(COc3ccc(CCC(=O)O)cc3C)CC(F)(F)CC2)cc1F [Compound 530, 3-[4-[[5,5-difluoro-2-(3-fluoro-4-methyl-phenyl)cyclohexen-1-yl]methoxy]-3-methyl-phenyl]Propanoic Acid]
> 5000 nM	187 nM	133 nM	Cc1cc(CCC(=O)O)ccc1OCC1=C(c2ccc(F)c(F)c2)CCC(F)(F)C1 [Compound 532, 3-[4-[[2-(3,4-difluorophenyl)-5,5-difluoro-cyclohexen-1-yl]methoxy]-3-methyl-phenyl]Propanoic Acid]
> 5000 nM	532 nM	309 nM	O=C(O)CCc1cc(F)c(OCC2=C(c3ccc(F)c(F)c3)CCC(F)(F)C2)c(F)c1 [Compound 533, 3-[4-[[2-(3,4-difluorophenyl)-5,5-difluoro-cyclohexen-1-yl]methoxy]-3,5-difluoro-phenyl]Propanoic Acid]
> 5000 nM	157 nM	96 nM	Cc1c(CCC(=O)O)ccc(OCC2=C(c3ccc(F)cc3F)CCC(F)(F)C2)c1C [Compound 534, 3-[4-[[2-(2,4-difluorophenyl)-5,5-difluoro-cyclohexen-1-yl]methoxy]-2,3-dimethyl-phenyl]Propanoic Acid]
> 5000 nM	108 nM	120 nM	Cc1cc(CCC(=O)O)ccc1OCC1=C(c2ccc(F)cc2F)CCC(F)(F)C1 [Compound 535, 3-[4-[[2-(2,4-difluorophenyl)-5,5-difluoro-cyclohexen-1-yl]methoxy]-3-methyl-phenyl]Propanoic Acid]
> 5000 nM	215 nM	207 nM	O=C(O)CCc1cc(F)c(OCC2=C(c3ccc(F)cc3F)CCC(F)(F)C2)c(F)c1 [Compound 536, 3-[4-[[2-(2,4-difluorophenyl)-5,5-difluoro-cyclohexen-1-yl]methoxy]-3,5-difluoro-phenyl]Propanoic Acid]
> 5000 nM	161 nM	83 nM	Cc1c(CCC(=O)O)ccc(OCC2=C(c3ccccc3)CCC(F)(F)C2)c1C [Compound 537, 3-[4-[(5,5-difluoro-2-phenyl-cyclohexen-1-yl)methoxy]-2,3-dimethyl-phenyl]Propanoic Acid]
> 5000 nM	292 nM	192 nM	O=C(O)CCc1cc(F)c(OCC2=C(c3ccccc3)CCC(F)(F)C2)c(F)c1 [Compound 539, 3-[4-[(5,5-difluoro-2-phenyl-cyclohexen-1-yl)methoxy]-3,5-difluoro-phenyl]Propanoic Acid]
2860 nM	182 nM	94 nM	Cc1cc(CCC(=O)O)ccc1OCC1=C(c2ccc(Cl)s2)CCC(F)(F)C1 [Compound 542, 3-[4-[[2-(5-chloro-2-thienyl)-5,5-difluoro-cyclohexen-1-yl]methoxy]-3-methyl-phenyl]Propanoic Acid]
> 5000 nM	287 nM	191 nM	O=C(O)CCc1cc(F)c(OCC2=C(c3ccc(Cl)s3)CCC(F)(F)C2)c(F)c1 [Compound 543, 3-[4-[[2-(5-chloro-2-thienyl)-5,5-difluoro-cyclohexen-1-yl]methoxy]-3,5-difluoro-phenyl]Propanoic Acid]

— US11230526B1, “Cylcoalkenyl derivatives useful as agonists of the GPR120 and/or GPR40 receptors” (Janssen Pharmaceutica NV, priority 2018, dated 2022)
